36 compounds from patent publication US10858335B2 (Rigel Pharmaceuticals, Inc., priority 2014, dated 2020) can be followed below.

Where a name gives a salt, the structure may show the parent alone.

In the assay the test system is GDF8 signaling (p-SMAD-3 (Ser423/425)). As to the kind of experiment: AlphaScreen SureFire SMAD3 (p-Ser423/425) assay, GDF8-stimulated cells (GDF pSMAD). The settings on record: Mus musculus, MPC-11, MPC11; GDF8-stimulated; p-SMAD3 AlphaScreen; read-out: GDF pSMAD (MPC11) (inhibition of GDF8 signaling). In kind it is cell-based. (In Alpha technology, singlet oxygen from a donor bead excites a nearby acceptor bead.)
For `Cc1cc(-c2ncccc2-c2ccc3ncc(C(=O)N4CCN(C)CC4)n3c2)ccc1F` [compound 581, (6-(2-(4-Fluoro-3-methylphenyl)pyridin-3-yl)imidazo[1,2-a]pyridin-3-yl)(4-methylpiperazin-1-yl)methanone], the IC50 worked out at 6310 nM.
Turning to `COc1ccc(NC(=O)c2cnc3ccc(-c4cccnc4-c4ccc(F)c(C)c4)cn23)cc1OC` [compound 582, N-(3,4-Dimethoxyphenyl)-6-(2-(4-fluoro-3-methylphenyl)pyridin-3-yl)imidazo[1,2-a]pyridine-3-carboxamide], the IC50 came out at 494 nM.
Turning to `CCCNC(=O)c1cnc2ccc(-c3cccnc3-c3ccc(F)c(C)c3)cn12` [compound 583, 6-(2-(4-Fluoro-3-methylphenyl)pyridin-3-yl)-N-propylimidazo[1,2-a]pyridine-3-carboxamide], the IC50 came out at 518 nM.
The figure for `CNC(=O)c1cnc2ccc(-c3cccnc3-c3ccc(F)c(C)c3)cn12` [compound 584, 6-(2-(4-Fluoro-3-methylphenyl)pyridin-3-yl)-N-methylimidazo[1,2-a]pyridine-3-carboxamide] is 96.2 nM; for `Cc1cc(-c2ncccc2-c2ccc3ncc(C(=O)NCCN4CCOCC4)n3c2)ccc1F` [compound 585, 6-(2-(4-Fluoro-3-methylphenyl)pyridin-3-yl)-N-(2-morpholinoethyl)imidazo[1,2-a]pyridine-3-carboxamide] it is 510 nM; for `CC(=O)c1cnc2ccc(-c3cccnc3-c3ccc(F)c(C)c3)cn12` [compound 586, 1-(6-(2-(4-Fluoro-3-methylphenyl)pyridin-3-yl)imidazo[1,2-a]pyridin-3-yl)ethan-1-one] it is 617 nM.
Take `CC(=O)c1cnc2ccc(-c3cccnc3-c3cccc(C)c3)cn12` [compound 587, 1-(6-(2-(m-Tolyl)pyridin-3-yl)imidazo[1,2-a]pyridin-3-yl)ethan-1-one]: the IC50 is 366 nM.
Regarding `CC(=O)c1cnc2ccc(-c3cccnc3-c3cccc(C4CC4)c3)cn12` [compound 588, 1-(6-(2-(3-Cyclopropylphenyl)pyridin-3-yl)imidazo[1,2-a]pyridin-3-yl)ethan-1-one], the IC50 is 316 nM.
The figure for `CC(=O)c1cnc2ccc(-c3cccnc3-c3cccc(C(F)(F)F)c3)cn12` [compound 589, 1-(6-(2-(3-(Trifluoromethyl)phenyl)pyridin-3-yl)imidazo[1,2-a]pyridin-3-yl)ethan-1-one] is 1220 nM.
In the case of `Cc1cc(-c2ncccc2-c2ccc3ncc(C(=O)NCCN4CCN(C)CC4)n3c2)ccc1F` [compound 590, 6-(2-(4-Fluoro-3-methylphenyl)pyridin-3-yl)-N-(2-(4-methylpiperazin-1-yl)ethyl)imidazo[1,2-a]pyridine-3-carboxamide], the IC50 stood at 514 nM.
The value for `Cc1cc(-c2ncccc2-c2ccc3ncc(C(=O)NCCCN4CCN(C)CC4)n3c2)ccc1F` [compound 591, 6-(2-(4-Fluoro-3-methylphenyl)pyridin-3-yl)-N-(3-(4-methylpiperazin-1-yl)propyl)imidazo[1,2-a]pyridine-3-carboxamide] was 333 nM; that for `Cc1cc(-c2ncccc2-c2ccc3ncc(C(=O)NC4CCN(C)CC4)n3c2)ccc1F` [compound 592, 6-(2-(4-Fluoro-3-methylphenyl)pyridin-3-yl)-N-(1-methylpiperidin-4-yl)imidazo[1,2-a]pyridine-3-carboxamide] was 205 nM.
With `Cc1cc(-c2ncccc2-c2ccc3ncc(C(=O)NC4CCOCC4)n3c2)ccc1F` [compound 593, 6-(2-(4-Fluoro-3-methylphenyl)pyridin-3-yl)-N-(tetrahydro-2H-pyran-4-yl)imidazo[1,2-a]pyridine-3-carboxamide], the IC50 came out at 1860 nM.
With `Cc1cc(-c2ncccc2-c2ccn3cncc3c2)ccc1F` [compound 594, 7-(2-(4-Fluoro-3-methylphenyl)pyridin-3-yl)imidazo[1,5-a]pyridine], the IC50 was 570 nM.
Regarding `Cc1cccc(-c2ncccc2-c2ccn3cncc3c2)c1` [compound 595, 7-(2-(m-Tolyl)pyridin-3-yl)imidazo[1,5-a]pyridine], the IC50 was 1160 nM.
Take `c1cc(-c2ncccc2-c2ccn3cncc3c2)cc(C2CC2)c1` [compound 596, 7-(2-(3-Cyclopropylphenyl)pyridin-3-yl)imidazo[1,5-a]pyridine]: the IC50 stood at 204 nM.
Regarding `FC(F)(F)c1cccc(-c2ncccc2-c2ccn3cncc3c2)c1` [compound 597, 7-(2-(3-(Trifluoromethyl)phenyl)pyridin-3-yl)imidazo[1,5-a]pyridine], the IC50 stood at 837 nM.
Regarding `Cc1cc(-c2ncccc2-c2ccc3ncc(C(C)(C)O)n3c2)ccc1F` [compound 599, 2-(6-(2-(4-Fluoro-3-methylphenyl)pyridin-3-yl)imidazo[1,2-a]pyridin-3-yl)propan-2-ol], the IC50 worked out at 3880 nM.
Turning to `[2H]C([2H])([2H])c1cccc(-c2ncccc2-c2ccc3nccn3c2)c1` [compound 600, 6-(2-(3-(Methyl-d3)phenyl)pyridin-3-yl)imidazo[1,2-a]pyridine], the IC50 amounted to 179 nM.
The value for `[2H]C([2H])([2H])c1cccc(-c2ncccc2-c2ccc3ncc(C#N)n3c2)c1` [compound 601, 6-(2-(3-(Methyl-d3)phenyl)pyridin-3-yl)imidazo[1,2-a]pyridine-3-carbonitrile] was 141 nM; that for `[2H]C([2H])([2H])c1cccc(-c2ncccc2-c2ccn3nccc3n2)c1` [compound 602, 5-(2-(3-(Methyl-d3)phenyl)pyridin-3-yl)pyrazolo[1,5-a]pyrimidine] was 68.1 nM.
The figure for `[2H]C([2H])([2H])c1cccc(-c2ncccc2-c2ccc3ncsc3c2)c1` [compound 603, 6-(2-(3-(Methyl-d3)phenyl)pyridin-3-yl)benzo[d]thiazole] is 109 nM; for `[2H]C([2H])([2H])c1cccc(-c2ncccc2-c2ccn3cncc3c2)c1` [compound 604, 7-(2-(3-(Methyl-d3)phenyl)pyridin-3-yl)imidazo[1,5-a]pyridine] it is 8520 nM.
The value for `[2H]C([2H])([2H])c1cccc(-c2ncccc2-c2ccc3nccnc3c2)c1` [compound 605, 6-(2-(3-(Methyl-d3)phenyl)pyridin-3-yl)quinoxaline] was 7940 nM; that for `Cc1cc(-c2ncccc2-c2ccc3ncc(C(=O)NCCN(C)C)n3c2)ccc1F` [compound 607, N-(2-(Dimethylamino)ethyl)-6-(2-(4-fluoro-3-methylphenyl)pyridin-3-yl)imidazo[1,2-a]pyridine-3-carboxamide] was 705 nM; that for `Cc1cc(-c2ncccc2-c2ccc3ncc(C(=O)NCCCN(C)C)n3c2)ccc1F` [compound 608, N-(3-(Dimethylamino)propyl)-6-(2-(4-fluoro-3-methylphenyl)pyridin-3-yl)imidazo[1,2-a]pyridine-3-carboxamide] was 326 nM.
With `Cc1cc(-c2ncccc2-c2ccc3ncc(C(=O)NCCCN4CCOCC4)n3c2)ccc1F` [compound 609, 6-(2-(4-Fluoro-3-methylphenyl)pyridin-3-yl)-N-(3-morpholinopropyl)imidazo[1,2-a]pyridine-3-carboxamide], the IC50 is 319 nM.
The value for `Cc1cc(-c2ncccc2-c2ccc3ncc(C(=O)NCCN4CCCC4)n3c2)ccc1F` [compound 610, 6-(2-(4-Fluoro-3-methylphenyl)pyridin-3-yl)-N-(2-(pyrrolidin-1-yl)ethyl)imidazo[1,2-a]pyridine-3-carboxamide] was 648 nM; that for `Cc1cc(-c2ncccc2-c2ccc3ncc(C(=O)NCCCN4CCCCC4)n3c2)ccc1F` [compound 611, 6-(2-(4-Fluoro-3-methylphenyl)pyridin-3-yl)-N-(3-(piperidin-1-yl)propyl)imidazo[1,2-a]pyridine-3-carboxamide] was 114 nM; that for `Cc1cc(-c2ncccc2-c2ccc3ncc(C(=O)NCCCN4CCCC4=O)n3c2)ccc1F` [compound 612, 6-(2-(4-Fluoro-3-methylphenyl)pyridin-3-yl)-N-(3-(2-oxopyrrolidin-1-yl)propyl)imidazo[1,2-a]pyridine-3-carboxamide] was 408 nM.
The value for `Cc1cc(-c2ncccc2-c2ccc3ncc(C(=O)NCC(O)CO)n3c2)ccc1F` (stereo not drawn) [compound 613, N-(2,3-Dihydroxypropyl)-6-(2-(4-fluoro-3-methylphenyl)pyridin-3-yl)imidazo[1,2-a]pyridine-3-carboxamide] was 624 nM; that for `Cc1cc(-c2ncccc2-c2ccc3ncc(C(=O)OC[C@H](Cc4c[nH]c5ccccc45)NC(=O)OC(C)(C)C)n3c2)ccc1F` [compound 614, (S)-2-((tert-Butoxycarbonyl)amino)-3-(1H-indol-3-yl)propyl 6-(2-(4-fluoro-3-methylphenyl)pyridin-3-yl)imidazo[1,2-a]pyridine-3-carboxylate] was 5560 nM.
The value for `Cc1cc(-c2ncccc2-c2ccc3ncc(C(=O)OC[C@@H](N)Cc4c[nH]c5ccccc45)n3c2)ccc1F` [compound 615, (S)-2-Amino-3-(1H-indol-3-yl)propyl 6-(2-(4-fluoro-3-methylphenyl)pyridin-3-yl)imidazo[1,2-a]pyridine-3-carboxylate formic acid salt] was 2130 nM; that for `Cc1cc(-c2ncccc2-c2ccc3ncc(C(=O)Nc4cccc(S(N)(=O)=O)c4)n3c2)ccc1F` [compound 616, 6-(2-(4-Fluoro-3-methylphenyl)pyridin-3-yl)-N-(3-sulfamoylphenyl)imidazo[1,2-a]pyridine-3-carboxamide] was 2180 nM; that for `Cc1cc(-c2ncccc2-c2ccc3ncc(C(=O)Nc4ccc(S(N)(=O)=O)cc4)n3c2)ccc1F` [compound 617, 6-(2-(4-Fluoro-3-methylphenyl)pyridin-3-yl)-N-(4-sulfamoylphenyl)imidazo[1,2-a]pyridine-3-carboxamide] was 10800 nM.
For `Cc1cc(-c2ncccc2-c2ccc3ncc(C(=O)Nc4ccc(C(N)=O)cc4)n3c2)ccc1F` [compound 618, N-(4-Carbamoylphenyl)-6-(2-(4-fluoro-3-methylphenyl)pyridin-3-yl)imidazo[1,2-a]pyridine-3-carboxamide], the IC50 came out at 1120 nM.
